# Where a name gives a salt, the structure may show the parent alone.
# Test system: not given
# Assay: not given
# Details: from C=CCC(=O)Nc1cc(NC(=O)OC)ccc1-c1cc(C(CC=C)NC(=O)OC(C)(C)C)nc(C)n1; rcm bond; Grubbs II; DCM; 0.5 mM; 40.0 °C; 4.0 h
row,SMILES,"ring closure, yield of all isomers [%]"
1,COC(=O)Nc1ccc2c(c1)NC(=O)C/C=C/CC(NC(=O)OC(C)(C)C)c1cc-2nc(C)n1 (stereo not drawn),22

# Same assay, conditions: from C=CCCC(=O)Nc1cc(NC(=O)OC)ccc1-c1ccnc([C@H](CC=C)NC(=O)OC(C)(C)C)c1; rcm bond; Grubbs II; DCM; 0.99 mM; 40.0 °C; 1.5 h
row,SMILES,"ring closure, yield of all isomers [%]"
1,COC(=O)Nc1ccc2c(c1)NC(=O)CCC=CC[C@H](NC(=O)OC(C)(C)C)c1cc-2ccn1,75

# Target: purified human Factor XIa (Homo sapiens (Human), UniProt P03951)
# Assay: Factor XIa enzyme inhibition assay (chromogenic substrate S-2366)
# Type: biochemical
# Details: substrate S-2366, pH 7.4
# Description: The effectiveness of compounds of the present invention as inhibitors of the coagulation Factors XIa, VIIa, IXa, Xa, XIIa, plasma kallikrein or thrombin, can be determined using a relevant purified serine protease, respectively, and an appropriate synthetic substrate. The rate of hydrolysis of the chromogenic or fluorogenic substrate by the relevant serine protease was measured both in the absence and presence of compounds of the present invention. […] A decrease in the rate of absorbance or fluorescence change in the presence of inhibitor is indicative of enzyme inhibition. Such methods are known to one skilled in the art. The results of this assay are expressed as the inhibitory constant, Ki.
# Values of Ki were determined by allowing the protease to react with the substrate in the presence of the inhibitor. Reactions were allowed to go for periods of 20-180 minutes (depending on the protease) and the velocities (rate of absorbance or fluorescence change versus time) were measured. The following relationships were used to calculate Ki values: (vo−vs)/vs=I/(Ki(1+S/Km)) for a competitive inhibitor with one binding site; or vs/vo=A+((B−A)/1+((IC50/(I)n))); and Ki=IC50/(1+S/Km) for a competitive inhibitor where: […]
# Sequence of purified human Factor XIa (P03951 388-625): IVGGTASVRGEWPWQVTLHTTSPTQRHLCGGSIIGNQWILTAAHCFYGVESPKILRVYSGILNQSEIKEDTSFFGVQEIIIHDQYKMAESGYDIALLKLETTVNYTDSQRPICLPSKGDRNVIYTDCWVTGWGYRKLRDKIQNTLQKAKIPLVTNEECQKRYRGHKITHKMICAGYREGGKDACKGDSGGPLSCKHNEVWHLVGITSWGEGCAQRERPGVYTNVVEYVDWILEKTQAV
# Sequence of purified human Factor XIa (P03951 19-387 partner): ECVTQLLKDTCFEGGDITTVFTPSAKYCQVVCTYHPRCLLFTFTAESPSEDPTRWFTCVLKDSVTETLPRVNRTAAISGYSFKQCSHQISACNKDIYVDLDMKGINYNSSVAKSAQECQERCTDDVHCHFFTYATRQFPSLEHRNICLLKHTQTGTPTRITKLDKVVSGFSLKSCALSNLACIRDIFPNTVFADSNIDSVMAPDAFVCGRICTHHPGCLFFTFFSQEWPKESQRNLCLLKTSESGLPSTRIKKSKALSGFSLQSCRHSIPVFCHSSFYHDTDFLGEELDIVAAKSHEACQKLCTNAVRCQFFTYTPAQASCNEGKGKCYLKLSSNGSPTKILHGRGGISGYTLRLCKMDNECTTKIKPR
row,SMILES,Ki [nM]
1,COC(=O)Nc1ccc2c(c1)NC(C(=O)OC)(C(F)(F)F)CCCC[C@H](NC(=O)/C=C/c1cc(Cl)ccc1-n1cnnn1)c1nc-2c[nH]1 (stereo partly drawn) [Example I-104],435
2,"COC(=O)Nc1ccc2c(c1)/N=C/CCCC[C@H](NC(=O)/C=C/c1cc(Cl)ccc1-n1cnnn1)c1nc-2c(F)[nH]1 [Example I-107, {(E)-(S)-14-[(E)-3-(5-Chloro-2-tetrazol-1-yl-phenyl)-acryloylamino]-17-fluoro-8,16,18-triaza-tricyclo[13.2.1.0^2,7]octadeca-1(17),2,4,6,8,15(18)-hexaen-5-yl}-carbamic acid methyl ester, trifluoroacetic acid salt]",29
3,COC(=O)Nc1ccc2c(c1)N(C(=O)OC)CCCCC[C@H](NC(=O)/C=C/c1cc(Cl)ccc1-n1cnnn1)c1nc-2c[nH]1 [Example I-108],3870
4,COC(=O)Nc1ccc2c(c1)NC(C(N)=O)C(C)CCC[C@H](NC(=O)/C=C/c1cc(Cl)ccc1-n1cnnn1)c1nc-2c[nH]1 (stereo partly drawn) [Example I-114],296
5,CCOC(=O)CN1CCCC[C@H](NC(=O)/C=C/c2cc(Cl)ccc2-n2cnnn2)c2nc(c[nH]2)-c2ccc(NC(=O)OC)cc2C1 [Example I-121],736
6,COC(=O)Nc1ccc2c(c1)NC(=O)CC/C=C/C[C@H](NC(=O)c1ccc3c(c1)CCC[C@@H]3N)c1nc-2c[nH]1 [Example I-153],1650
7,"Cc1cc(F)c(C(=O)N[C@H]2C/C=C/CCC(=O)Nc3cc(NC(=O)OCCN(C)C)ccc3-c3nc2[nH]c3Cl)c(F)c1 [Example I-183, [(E)-(S)-18-Chloro-15-(2,6-difluoro-4-methyl-benzoylamino)-9-oxo-8,17,19-triaza-tricyclo[14.2.1.0^2,7]nonadeca-1(18),2,4,6,12,16(19)-hexaen-5-yl]-carbamic acid 2-dimethylamino-ethyl ester, 2 TFA]",4950
8,COC(=O)Nc1ccc2c(c1)NC(C(F)(F)F)CC/C=C/C[C@H](NC(=O)/C=C/c1cc(Cl)ccc1-n1cnnn1)c1nc-2c[nH]1 (stereo partly drawn) [Example I-211],2170
9,"CCOC(=O)[C@H]1CCCC[C@H](NC(=O)/C=C/c2cc(Cl)ccc2-n2cnnn2)c2nc(c(C)[nH]2)-c2ccc(NC(=O)OC)cc2N1 [Example I-242, (9R,14S)-14-[(E)-3-(5-Chloro-2-tetrazol-1-yl-phenyl)-acryloylamino]-5-methoxycarbonylamino-17-methyl-8,16,18-triaza-tricyclo[13.2.1.0^2,7]octadeca-1(17),2,4,6,15(18)-pentaene-9-carboxylic acid ethyl ester, bis-trifluoroacetic acid salt]",456
10,COC(=O)Nc1ccc2c(c1)CC(C(=O)N(C)C)CCCC[C@H](NC(=O)/C=C/c1cc(Cl)ccc1-n1cnnn1)c1nc-2c[nH]1 (stereo partly drawn) [Example I-258],947
11,COC(=O)Nc1ccc2c(c1)NC(=O)CCCC[C@H](NC(=O)c1ccc3cccnc3c1)c1nc-2c[nH]1 [Example I-262],675
12,COC(=O)Nc1ccc2c(c1)NCCCCC[C@H](NC(=O)/C=C/c1c(C(C)=O)ccc(Cl)c1F)c1nc-2c(C#N)[nH]1 [Example I-265],133
13,"COC(=O)Nc1ccc2c(c1)C(=O)C(F)(F)CCCC[C@H](NC(=O)/C=C/c1cc(Cl)ccc1-n1cnnn1)c1nc-2c[nH]1 [Example I-270, {(S)-14-[(E)-3-(5-Chloro-2-tetrazol-1-yl-phenyl)-acryloylamino]-9,9-difluoro-8-oxo-16,18-diaza-tricyclo[13.2.1.0^2,7]octadeca-1(17),2,4,6,15(18)-pentaen-5-yl}-carbamic acid methyl ester, TFA salt]",1740
14,COC(=O)Nc1ccc2c(c1)NC(=O)CCCC[C@H](NC(=O)c1c(F)cc(C)cc1F)c1cc-2ccn1 [II-4],111
15,COC(=O)Nc1ccc2c(c1)NC(C(F)(F)F)CCCC[C@H](NC(=O)c1ccc(C(=N)N)cc1)c1cc-2ccn1 (stereo partly drawn) [II-15],4160
16,CCOC(=O)C1CCCC[C@H](NC(=O)/C=C/c2cc(Cl)ccc2-n2cnnn2)c2cc(ccn2)-c2ccc(NC(=O)OC)cc2N1 (stereo partly drawn) [II-18],572
17,CCOC(=O)[C@@H]1CCCC[C@H](NC(=O)/C=C/c2c(-n3cnnn3)ccc(Cl)c2F)c2cc(ccn2)-c2ccc(NC(=O)OCCOC)cc2N1 [II-43],938

# Now from value to compound:
row,Ki [nM],SMILES
1,< 5,"COC(=O)Nc1ccc2c(c1)N[C@@H](CO)CCCC[C@H](NC(=O)/C=C/c1cc(Cl)ccc1-n1cnnn1)c1nc-2c[nH]1 [Example I-77, {(9R,14S)-14-[(E)-3-(5-Chloro-2-tetrazol-1-yl-phenyl)-acryloylamino]-9-hydroxymethyl-8,16,18-triaza-tricyclo[13.2.1.0^2,7]octadeca-1(17),2,4,6,15(18)-pentaen-5-yl}-carbamic acid methyl ester, 2 TFA salt]"
2,< 5,"COC(=O)Nc1ccc2c(c1)NCCCCC[C@H](NC(=O)/C=C/c1cc(Cl)ccc1-n1cnnn1)c1nc-2c(C#N)[nH]1 [Example I-115, {(S)-14-[(E)-3-(5-Chloro-2-tetrazol-1-yl-phenyl)-acryloylamino]-17-cyano-8,16,18-triaza-tricyclo[13.2.1.0^2,7]octadeca-1(17),2,4,6,15(18)-pentaen-5-yl}-carbamic acid methyl ester, 2 TFA salt]"
3,< 5,O=C(/C=C/c1cc(Cl)ccc1-n1cnnn1)N[C@H]1CCCCCNc2cc(NC(=O)OC[C@H]3CCCO3)ccc2-c2c[nH]c1n2 [Example I-124]
4,< 5,"COC(=O)Nc1ccc2c(c1)NC(=O)CCCC[C@H](NC(=O)/C=C/c1cc(Cl)ccc1-n1cnnn1)C1=NC=C2O1 [Example I-134, Methyl N-[(14S)-14-[(2E)-3-[5-chloro-2-(1H-1,2,3,4-tetrazol-1-yl)phenyl]prop-2-enamido]-9-oxo-18-oxa-8,16-diazatricyclo[13.2.1.0^2,7]octadeca-1(17),2(7),3,5,15-pentaen-5-yl]carbamate, trifluoroacetic acid salt]"
5,< 5,COC(=O)Nc1ccc2c(c1)NC(=O)CC/C=C/C[C@H](NC(=O)c1ccc3c(c1)CCNC3)c1nc-2c[nH]1 [Example I-151]
6,21,COC(=O)Nc1ccc2c(c1)NC(=O)CC/C=C/C[C@H](NC(=O)c1ccc3c(c1)CCC[C@H]3N)c1nc-2c[nH]1 [Example I-152]
7,< 5,O=C(/C=C/c1cc(Cl)ccc1-n1cnnn1)N[C@H]1C/C=C/CCC(=O)Nc2ccc(F)cc2-c2nc1[nH]c2Cl [Example I-227]
8,< 5,"CCOC(=O)[C@H]1CCCC[C@H](NC(=O)/C=C/c2cc(Cl)ccc2-n2cnnn2)c2nc(c(C#N)[nH]2)-c2ccc(NC(=O)OC)cc2N1 [Example I-251, (9R,14S)-14-[(E)-3-(5-Chloro-2-tetrazol-1-yl-phenyl)-acryloylamino]-17-cyano-5-methoxycarbonylamino-8,16,18-triaza-tricyclo[13.2.1.0^2,7]octadeca-1(17),2,4,6,15(18)-pentaene-9-carboxylic acid ethyl ester, 2 TFA]"
9,9,COC(=O)Nc1ccc2c(c1)NCCCCC[C@H](NC(=O)/C=C/c1cc(C)ccc1-n1cnnn1)c1nc-2c(C#N)[nH]1 [Example I-268]
10,< 5,COCCOC(=O)Nc1ccc2c(c1)N[C@@H](C(=O)OC)CCCC[C@H](NC(=O)/C=C/c1cc(Cl)ccc1-n1cnnn1)c1nc-2c(C#N)[nH]1 [Example I-278]
11,102,COC(=O)c1ccc2c(c1)-c1c[nH]c(n1)[C@@H](NC(=O)/C=C/c1cc(Cl)ccc1-n1cnnn1)C/C=C/CCC(=O)N2 [Example I-284]
12,19,COC(=O)Nc1ccc2c(c1)NCCCCC[C@H](NC(=O)/C=C/c1cc(Cl)ccc1-n1cnnn1)c1nc-2c(C(=O)N(C)C)[nH]1 [Example I-299]
13,9,COC(=O)Nc1ccc2c(c1)NC(=O)CC/C=C/C[C@H](NC(=O)/C=C/c1cccc(Cl)c1)c1nc-2c(Cl)[nH]1 [Example I-309]
14,< 5,COC(=O)Nc1ccc2c(c1)NC(=O)CC/C=C/C[C@H](NC(=O)/C=C/c1c(C(F)(F)F)ccc(Cl)c1F)c1nc-2c(Cl)[nH]1 [Example I-311]
15,< 5,COC(=O)Nc1ccc2c(c1)NC(=O)CC/C=C/C[C@H](NC(=O)c1ccc(C(=N)N)cc1)c1cc-2ccn1 [II-3]
16,23,COC(=O)Nc1ccc2c(c1)NC(=O)CCCCC(NC(=O)/C=C/c1cc(Cl)ccc1-n1cnnn1)c1cc-2nc(C)n1 (stereo not drawn) [II-10]
17,< 5,COC(=O)Nc1ccc2c(c1)NC(C(F)(F)F)CCCC[C@H](NC(=O)C1CCC(CN)CC1)c1cc-2ccn1 (stereo partly drawn) [II-13]
18,< 5,COC(=O)Nc1ccc2c(c1)N[C@@H](C(=O)N1CCN(C)CC1)CCCC[C@H](NC(=O)/C=C/c1cc(Cl)ccc1-n1cnnn1)c1cc-2ccn1 [II-35]
19,21,COC(=O)Nc1ccc2c(c1)N[C@@H](C(=O)NCc1ccccn1)CCCC[C@H](NC(=O)/C=C/c1cc(Cl)ccc1-n1cnnn1)c1cncc-2c1 [II-58]
20,< 5,CCOC(=O)C1CCCCC(NC(=O)/C=C/c2cc(Cl)ccc2-n2cnnn2)c2cc(cc(=O)[nH]2)-c2ccc(NC(=O)OC)cc2N1 (stereo not drawn) [II-62]
